Data: patent US20030166932A1 (priority 2002, published 2003)

How the values were obtained:
RARβ [1] = target: T1, RARβ (Homo sapiens, UniProt P10826); experiment: cell-based; type: cell-based; settings: for EC50: NA = Not Active, read-out: RAR Trans. EC50 (nM) β; for Emax: relative to 10^−6 M ATRA, read-out: % efficacy, RAR Trans. β
T1 sequence (P10826 154-455): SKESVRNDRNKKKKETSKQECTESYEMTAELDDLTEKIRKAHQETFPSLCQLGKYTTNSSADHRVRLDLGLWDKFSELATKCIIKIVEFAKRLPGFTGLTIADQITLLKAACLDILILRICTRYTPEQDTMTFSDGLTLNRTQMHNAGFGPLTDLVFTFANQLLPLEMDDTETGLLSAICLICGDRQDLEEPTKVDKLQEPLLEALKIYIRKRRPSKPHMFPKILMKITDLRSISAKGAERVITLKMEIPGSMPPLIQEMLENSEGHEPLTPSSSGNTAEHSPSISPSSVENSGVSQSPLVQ
From the text: (§1) The specification of U.S. Pat. No. 5,455,265 is hereby expressly incorporated by reference.

RARβ [2] = target: T2, RARβ (Homo sapiens, UniProt P10826); experiment: ligand binding assay; settings: read-out: RAR Bind. Ki (nM) β
T2 sequence (P10826 1-455): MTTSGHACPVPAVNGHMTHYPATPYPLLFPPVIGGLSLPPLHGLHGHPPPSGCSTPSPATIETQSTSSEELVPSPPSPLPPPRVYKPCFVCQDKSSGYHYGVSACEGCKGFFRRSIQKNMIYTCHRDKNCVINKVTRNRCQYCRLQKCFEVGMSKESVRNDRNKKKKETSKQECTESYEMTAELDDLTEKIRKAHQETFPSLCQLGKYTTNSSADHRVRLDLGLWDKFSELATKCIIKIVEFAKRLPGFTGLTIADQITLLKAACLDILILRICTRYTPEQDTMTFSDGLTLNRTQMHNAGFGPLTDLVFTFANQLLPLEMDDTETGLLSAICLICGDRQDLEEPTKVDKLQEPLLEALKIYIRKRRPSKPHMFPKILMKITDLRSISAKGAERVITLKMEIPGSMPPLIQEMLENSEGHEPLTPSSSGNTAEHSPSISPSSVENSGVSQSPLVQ
From the text: (§2) The results obtained in this assay are expressed in EC50 numbers, as they are also in the chimeric receptor transactivation assay. The results of ligand binding assay are expressed in Kd numbers.
(§3) Particularly, the transactivation data pertaining to RAR receptors were obtained in the chimeric assay, and the data pertaining to transactivation of RXR receptors were obtained in the holoreceptor transactivation assay.

RARγ [3] = target: T3, RARγ (Homo sapiens, UniProt P13631); experiment: ligand binding assay; settings: read-out: RAR Bind. Ki (nM) Y
T3 sequence (P13631 1-454): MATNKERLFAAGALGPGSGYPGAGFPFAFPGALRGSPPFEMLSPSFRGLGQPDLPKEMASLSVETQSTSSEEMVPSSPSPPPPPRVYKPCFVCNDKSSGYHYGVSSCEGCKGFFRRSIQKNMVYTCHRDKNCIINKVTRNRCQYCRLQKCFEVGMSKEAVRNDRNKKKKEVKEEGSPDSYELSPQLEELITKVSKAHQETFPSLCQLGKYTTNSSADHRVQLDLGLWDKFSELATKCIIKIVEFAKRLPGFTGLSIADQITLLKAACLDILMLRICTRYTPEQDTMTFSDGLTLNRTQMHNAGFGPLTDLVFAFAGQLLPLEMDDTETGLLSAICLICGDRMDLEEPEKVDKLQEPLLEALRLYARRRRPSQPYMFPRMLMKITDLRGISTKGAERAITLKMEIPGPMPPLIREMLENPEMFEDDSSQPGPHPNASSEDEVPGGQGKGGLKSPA
From the text: as §2, §3

RXRβ [4] = target: T4, RXRβ (UniProt P28704); experiment: ligand binding assay; settings: read-out: RXR Bind Ki (nM) β
T4 sequence (P28704 1-520): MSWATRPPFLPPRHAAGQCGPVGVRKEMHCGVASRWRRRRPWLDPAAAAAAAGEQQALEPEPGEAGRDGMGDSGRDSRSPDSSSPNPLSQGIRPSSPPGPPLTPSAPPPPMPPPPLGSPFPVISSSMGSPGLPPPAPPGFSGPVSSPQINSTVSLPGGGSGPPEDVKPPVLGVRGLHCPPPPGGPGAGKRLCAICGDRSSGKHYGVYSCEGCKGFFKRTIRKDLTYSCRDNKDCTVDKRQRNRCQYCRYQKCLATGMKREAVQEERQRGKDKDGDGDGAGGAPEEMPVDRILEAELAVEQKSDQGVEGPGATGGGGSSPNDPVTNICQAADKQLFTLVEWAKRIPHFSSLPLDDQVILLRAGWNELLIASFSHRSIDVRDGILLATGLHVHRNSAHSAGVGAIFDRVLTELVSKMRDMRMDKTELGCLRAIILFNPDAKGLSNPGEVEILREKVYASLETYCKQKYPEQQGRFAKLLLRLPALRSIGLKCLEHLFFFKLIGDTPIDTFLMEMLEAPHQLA
From the text: as §2, §3

RXRγ [5] = target: T5, RXRγ (UniProt P28705); experiment: ligand binding assay; settings: read-out: RXR Bind Ki (nM) Y
T5 sequence (P28705 1-463): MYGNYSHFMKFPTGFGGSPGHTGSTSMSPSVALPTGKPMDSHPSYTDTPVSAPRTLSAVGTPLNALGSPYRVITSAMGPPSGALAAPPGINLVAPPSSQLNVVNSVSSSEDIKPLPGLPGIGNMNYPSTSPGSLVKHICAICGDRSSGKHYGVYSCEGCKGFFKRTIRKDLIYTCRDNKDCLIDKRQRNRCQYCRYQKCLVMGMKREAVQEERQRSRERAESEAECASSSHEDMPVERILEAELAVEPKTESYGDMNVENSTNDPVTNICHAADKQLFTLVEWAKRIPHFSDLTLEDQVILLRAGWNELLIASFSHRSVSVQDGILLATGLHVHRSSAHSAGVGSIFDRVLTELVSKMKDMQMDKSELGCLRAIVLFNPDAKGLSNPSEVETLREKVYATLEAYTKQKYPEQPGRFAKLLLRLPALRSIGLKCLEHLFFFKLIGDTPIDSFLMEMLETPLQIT

RXRα [6] = target: T6, RXRα (Homo sapiens, UniProt P19793); experiment: ligand binding assay
T6 sequence (P19793 1-462): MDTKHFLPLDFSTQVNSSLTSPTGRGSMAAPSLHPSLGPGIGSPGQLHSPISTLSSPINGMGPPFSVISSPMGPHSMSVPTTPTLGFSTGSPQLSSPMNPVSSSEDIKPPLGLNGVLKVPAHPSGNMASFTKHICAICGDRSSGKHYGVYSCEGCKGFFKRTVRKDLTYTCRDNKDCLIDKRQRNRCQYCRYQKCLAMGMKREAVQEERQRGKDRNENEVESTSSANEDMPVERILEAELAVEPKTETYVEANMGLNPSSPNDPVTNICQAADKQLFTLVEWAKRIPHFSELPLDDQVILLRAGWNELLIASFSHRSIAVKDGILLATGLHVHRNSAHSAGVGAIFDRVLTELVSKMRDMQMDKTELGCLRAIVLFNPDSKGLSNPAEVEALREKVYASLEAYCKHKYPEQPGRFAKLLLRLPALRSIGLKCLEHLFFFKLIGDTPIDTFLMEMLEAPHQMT
From the text: as §2, §3

RXRβ [7] = target: T4, RXRβ; experiment: holoreceptor transactivation assay; type: cell-based; settings: for EC50: NA = Not Active, read-out: RXR Trans. EC50 (nM) β; for % efficacy, RXR Trans. β: relative to 10^−6 M AGN 194204
From the text: as §2, §3

RXRγ [8] = target: T5, RXRγ; experiment: holoreceptor transactivation assay; type: cell-based; settings: for EC50: NA = Not Active, read-out: RXR Trans. EC50 (nM) Y; for % efficacy, RXR Trans. Y: relative to 10^−6 M AGN 194204
From the text: as §2, §3

RXRα [9] = target: T6, RXRα; experiment: holoreceptor transactivation assay; settings: for Emax: read-out: % efficacy, RXR Trans. α
From the text: as §2, §3

RARγ [10] = target: T7, RARγ (Homo sapiens, UniProt P13631); type: cell-based
T7 sequence (P13631 156-454): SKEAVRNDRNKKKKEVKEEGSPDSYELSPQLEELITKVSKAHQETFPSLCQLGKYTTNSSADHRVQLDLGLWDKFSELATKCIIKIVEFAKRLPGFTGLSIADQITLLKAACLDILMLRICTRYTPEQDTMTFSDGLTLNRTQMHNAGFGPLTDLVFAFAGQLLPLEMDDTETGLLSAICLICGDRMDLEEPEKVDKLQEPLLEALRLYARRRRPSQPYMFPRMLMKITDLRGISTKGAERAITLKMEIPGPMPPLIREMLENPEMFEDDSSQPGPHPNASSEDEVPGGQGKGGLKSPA
From the text: as §1

| SMILES | EC50 (RARβ [1]) | Emax (RARβ [1]) | Ki (RARβ [2]) | Ki (RARγ [3]) | Ki (RXRβ [4]) | Ki (RXRγ [5]) | Ki (RXRα [6]) | EC50 (RXRβ [7]) | % efficacy, RXR Trans. β (RXRβ [7]) | EC50 (RXRγ [8]) | % efficacy, RXR Trans. Y (RXRγ [8]) | EC50 (RXRα [9]) | Emax (RXRα [9]) | EC50 (RARγ [10]; NA = Not Active, read-out: RAR Trans. EC50 (nM) Y) | % efficacy, RAR Trans. Y (RARγ [10]; relative to 10^−6 M ATRA) |
| --- | --- | --- | --- | --- | --- | --- | --- | --- | --- | --- | --- | --- | --- | --- | --- |
| CCN(c1ccc2c(c1)C(C(C)C)=CCC2(C)C)c1ccc(C(=O)O)cn1 [Compound 172, 6-[Ethyl-(8-isopropyl5,5-dimethyl-5,6-dihydro-naphthalen-2-yl)-amino]-nicotinic acid] | – | – | 6000 nM | > 10000 nM | 4 nM | 6 nM | 0.7 nM | 13 nM | (112) % | 2 nM | (118) % | 2 nM | 109% | – | – |
| CCN(c1ccc(C(=O)O)cc1)c1ccc2c(c1)C(C(C)(C)C)=CCC2(C)C [Compound 88] | – | – | > 10000 nM | 3500 nM | 12 nM | 21 nM | 3 nM | 41 nM | (100) % | 5 nM | (120) % | 4 nM | 114% | – | – |
| CCN(c1ccc2c(c1)C(C)=CCC2(C)C)c1ccc(C(=O)O)cn1 [Compound 170, 6-[Ethyl-(5,5,8-trimethyl-5,6-dihydro-naphthalen-2-yl)-amino]-nicotinic acid] | – | – | > 10000 nM | > 10000 nM | 190 nM | 61 nM | 64 nM | 379 nM | (110) % | 67 nM | (127) % | 33 nM | 113% | – | – |
| C=CCN(c1ccc(C(=O)O)cc1)c1ccc2c(c1)C(C(C)(C)C)=CCC2(C)C [Compound 90, 4-[(8-t-Butyl-5,5-dimethyl-5,6-dihydronaphthalen-2-yl)(prop-2-en-yl)lamino]-benzoic acid] | > 1000 nM | 15% | > 10000 nM | > 10000 nM | 84 nM | 68 nM | 39 nM | 76 nM | (110) % | 12 nM | (102) % | 12 nM | 112% | > 1000 nM | (5) % |

Further lines, results first:

| EC50 (RARβ [1]) | Emax (RARβ [1]) | Ki (RARβ [2]) | Ki (RARγ [3]) | Ki (RXRβ [4]) | Ki (RXRγ [5]) | Ki (RXRα [6]) | EC50 (RXRβ [7]) | % efficacy, RXR Trans. β (RXRβ [7]) | EC50 (RXRγ [8]) | % efficacy, RXR Trans. Y (RXRγ [8]) | EC50 (RXRα [9]) | Emax (RXRα [9]) | EC50 (RARγ [10]; NA = Not Active, read-out: RAR Trans. EC50 (nM) Y) | % efficacy, RAR Trans. Y (RARγ [10]; relative to 10^−6 M ATRA) | SMILES |
| --- | --- | --- | --- | --- | --- | --- | --- | --- | --- | --- | --- | --- | --- | --- | --- |
| > 1000 nM | 32% | 1200 nM | 13000 nM | 46 nM | 99 nM | 8 nM | – | – | – | – | – | – | – | – | CCCN(c1ccc(C(=O)O)cc1)c1cc2c(cc1OCc1ccccc1)C(C)(C)CC=C2C(C)C [Compound 157] |
| – | – | > 10000 nM | > 10000 nM | > 10000 nM | > 10000 nM | > 10000 nM | > 1000 nM | (8) % | – | (65) % | – | 55% | – | – | CCCN(c1ccc(C(=O)O)cc1)c1cc2c(cc1C)C(C)=CCC2(C)C [Compound 46, 4-[n-Propyl(3,5,8,8-tetramethyl-7,8-dihydronaphthalen-2-yl)amino]benzoic acid] |
| – | – | 7500 nM | > 10000 nM | 15 nM | 37 nM | 5 nM | 8 nM | (63) % | 2 nM | (101) % | 0.5 nM | 64% | – | – | CCN(c1ccc(C(=O)O)cc1)c1cc2c(cc1OC)C(C)(C)CC=C2C(C)C [Compound 148, 4-[Ethyl-(8-isopropyl-3-methoxy-5,5-dimethyl-5,6-dihydronaphthalen-2-yl)amino]benzoic acid] |
